This passage reports IC50 results from patent publication US20250215030A1, “STAT MODULATORS AND USES THEREOF” (Recludix Pharma, Inc., priority 2022, published 2025).

For this experiment, the target named is T1, pSTAT3 (pY705-STAT3) (Homo sapiens, UniProt P40763).
T1 construct: host or cells: cryopreserved PBMC
The experiment in a line: MSD-pSTAT-PBMC Assay (pSTAT3, IL-6 stimulated). It is filed as cell-based. The essentials:
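Human PBMCs (50,000 cells/well for STAT3, 25,000 for STAT6) treated with compound 3 h, then stimulated 10 min with 10 ng/mL IL-6 or 1 ng/mL IL-4. Lysate pSTAT3 (pY705) or pSTAT6 (pY641) measured by MSD sandwich electrochemiluminescence. Signal minus unstimulated, normalized to DMSO; IC50 by variable-slope nonlinear regression.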

Where [1] appears, read: PBMC, compound 3 hrs, then 10 ng/mL IL-6 for 10 min, MSD pY705-STAT3, read-out: pSTAT3.

Molecules are shown by their SMILES. Read-outs that look alike come from different tables or passages of the source.

T1 sequence (P40763 whole entry): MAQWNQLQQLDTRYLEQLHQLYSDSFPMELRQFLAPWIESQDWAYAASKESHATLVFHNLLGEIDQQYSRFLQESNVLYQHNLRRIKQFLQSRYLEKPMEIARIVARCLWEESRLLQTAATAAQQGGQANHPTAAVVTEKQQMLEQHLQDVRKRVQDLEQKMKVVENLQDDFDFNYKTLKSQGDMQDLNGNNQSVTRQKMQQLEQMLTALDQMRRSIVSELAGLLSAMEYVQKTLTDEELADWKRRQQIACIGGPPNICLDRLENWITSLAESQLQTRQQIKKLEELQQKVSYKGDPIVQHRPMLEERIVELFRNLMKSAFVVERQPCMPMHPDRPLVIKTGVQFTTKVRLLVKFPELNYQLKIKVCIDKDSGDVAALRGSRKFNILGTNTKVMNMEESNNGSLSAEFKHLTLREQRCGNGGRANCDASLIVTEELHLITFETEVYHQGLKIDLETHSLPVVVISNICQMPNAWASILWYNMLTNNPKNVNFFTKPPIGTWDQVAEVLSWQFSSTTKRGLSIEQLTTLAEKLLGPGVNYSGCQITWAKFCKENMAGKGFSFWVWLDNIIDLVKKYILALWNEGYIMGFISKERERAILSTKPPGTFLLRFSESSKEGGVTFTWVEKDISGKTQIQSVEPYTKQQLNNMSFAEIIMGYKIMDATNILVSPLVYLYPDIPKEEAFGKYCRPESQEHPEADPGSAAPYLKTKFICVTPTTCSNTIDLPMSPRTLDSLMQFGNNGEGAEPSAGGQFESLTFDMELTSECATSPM

`CCCOC(=O)[C@H](C)NP(=O)(Oc1ccccc1)C(F)c1ccc2sc(C(=O)N[C@H]3C[C@@H]4C[C@@H]4C[C@H]4CC[C@@H](C(=O)N5CC(c6ncc(C)o6)C5)N4C3=O)cc2c1` (stereo partly drawn) [Compound 325, propyl ((fluoro(2-(((3S,6S,7aS,8aR,9aR)-3-(3-(5-methyloxazol-2-yl)azetidine-1-carbonyl)-5-oxodecahydro-1H-cyclopropa[d]pyrrolo[1,2-a]azocin-6-yl)carbamoyl)benzo[b]thiophen-5-yl)methyl)(phenoxy)phosphoryl)-L-alaninate]: the IC50 under setting [1] lay within 0.1 to 1 µM.

Turning to `CCOC(=O)[C@H](C)NP(=O)(OCC(F)(F)F)C(F)c1ccc2sc(C(=O)N[C@H]3C[C@@H]4C[C@@H]4C[C@H]4CC[C@@H](C(=O)N5CC(c6cnccc6C)C5)N4C3=O)cc2c1` (stereo partly drawn) [Compound 329, ethyl ((fluoro(2-(((3S,6S,7aS,8aR,9aR)-3-(3-(4-methylpyridin-3-yl)azetidine-1-carbonyl)-5-oxodecahydro-1H-cyclopropa[d]pyrrolo[1,2-a]azicin-6-yl)carbamoyl)benzo[b]thiophen-5-yl)methyl)(2,2,2-trifluoroethoxy)phosphoryl)-L-alaninate], the IC50 under setting [1] is less than 0.1 µM.

`CCCOC(=O)[C@H](C)NP(=O)(Oc1ccccc1)C(F)c1ccc2sc(C(=O)N[C@H]3C[C@H]4C[C@H]4C[C@H]4CC[C@@H](C(=O)N5CC(c6nncn6C)C5)N4C3=O)cc2c1` (stereo partly drawn) [Compound 332, propyl ((fluoro(2-(((3S,6S,7aR,8aS,9aR)-3-(3-(4-methyl-4H-1,2,4-triazol-3-yl)azetidine-1-carbonyl)-5-oxodecahydro-1H-cyclopropa[d]pyrrolo[1,2-a]azocin-6-yl)carbamoyl)benzo[b]thiophen-5-yl)methyl)(phenoxy)phosphoryl)-L-alaninate]: the IC50 under setting [1] was more than 3 µM.

`CCCOC(=O)[C@H](C)NP(=O)(Oc1ccccc1)C(F)c1ccc2sc(C(=O)N[C@H]3C[C@H]4C[C@H]4C[C@H]4CC[C@@H](C(=O)N5CC(c6ncccn6)C5)N4C3=O)cc2c1` (stereo partly drawn) [Compound 338, propyl ((fluoro(2-(((3S,6S,7aR,8aS,9aR)-5-oxo-3-(3-(pyrimidin-2-yl)azetidine-1-carbonyl)decahydro-1H-cyclopropa[d]pyrrolo[1,2-a]azocin-6-yl)carbamoyl)benzo[b]thiophen-5-yl)methyl)(phenoxy)phosphoryl)-L-alaninate]: under setting [1], the IC50 is less than 0.1 µM.

Take `CCCOC(=O)[C@H](C)NP(=O)(Oc1ccccc1)C(F)c1ccc2sc(C(=O)N[C@H]3C[C@@H]4C[C@@H]4C[C@H]4CC[C@@H](C(=O)N5CC(c6cc(C)on6)C5)N4C3=O)cc2c1` (stereo partly drawn) [Compound 359, propyl ((fluoro(2-(((3S,6S,7aS,8aR,9aR)-3-(3-(5-methylisoxazol-3-yl)azetidine-1-carbonyl)-5-oxodecahydro-1H-cyclopropa[d]pyrrolo[1,2-a]azocin-6-yl)carbamoyl)benzo[b]thiophen-5-yl)methyl)(phenoxy)phosphoryl)-L-alaninate]: the IC50 under setting [1] was less than 0.1 µM.

Consider `CCCOC(=O)[C@H](C)NP(=O)(Oc1ccccc1)C(F)c1ccc2sc(C(=O)N[C@H]3C[C@@H]4C[C@@H]4C[C@H]4CC[C@@H](C(=O)N5CC(c6nc(C)no6)C5)N4C3=O)cc2c1` (stereo partly drawn) [Compound 360, propyl ((fluoro(2-(((3S,6S,7aS,8aR,9aR)-3-(3-(3-methyl-1,2,4-oxadiazol-5-yl)azetidine-1-carbonyl)-5-oxodecahydro-1H-cyclopropa[d]pyrrolo[1,2-a]azocin-6-yl)carbamoyl)benzo[b]thiophen-5-yl)methyl)(phenoxy)phosphoryl)-L-alaninate], for which, under setting [1], the IC50 was less than 0.1 µM.

On to `CCCOC(=O)[C@H](C)NP(=O)(Oc1ccccc1)C(F)c1ccc2sc(C(=O)N[C@H]3C[C@@H]4C[C@@H]4C[C@H]4CC[C@@H](C(=O)N5CC(c6cc(C)no6)C5)N4C3=O)cc2c1` (stereo partly drawn) [Compound 361, propyl ((fluoro(2-(((3S,6S,7aS,8aR,9aR)-3-(3-(3-methylisoxazol-5-yl)azetidine-1-carbonyl)-5-oxodecahydro-1H-cyclopropa[d]pyrrolo[1,2-a]azocin-6-yl)carbamoyl)benzo[b]thiophen-5-yl)methyl)(phenoxy)phosphoryl)-L-alaninate], for which the IC50 under setting [1] was less than 0.1 µM.

In the case of `CCCOC(=O)[C@H](C)NP(=O)(Oc1ccccc1)C(F)c1ccc2sc(C(=O)N[C@H]3C[C@@H]4C[C@@H]4C[C@H]4CC[C@@H](C(=O)N5CC(c6cc(OC)no6)C5)N4C3=O)cc2c1` (stereo partly drawn) [Compound 362, propyl ((fluoro(2-(((3S,6S,7aS,8aR,9aR)-3-(3-(3-methoxyisoxazol-5-yl)azetidine-1-carbonyl)-5-oxodecahydro-1H-cyclopropa[d]pyrrolo[1,2-a]azocin-6-yl)carbamoyl)benzo[b]thiophen-5-yl)methyl)(phenoxy)phosphoryl)-L-alaninate], the IC50 under setting [1] is less than 0.1 µM.

Consider `CCCOC(=O)[C@H](C)NP(=O)(Oc1ccccc1)C(F)c1ccc2sc(C(=O)N[C@H]3C[C@@H]4C[C@@H]4C[C@H]4CC[C@@H](C(=O)N5CC(CS(C)(=O)=O)C5)N4C3=O)cc2c1` (stereo partly drawn) [Compound 363, propyl ((fluoro(2-(((3S,6S,7aS,8aR,9aR)-3-(3-((methylsulfonyl)methyl)azetidine-1-carbonyl)-5-oxodecahydro-1H-cyclopropa[d]pyrrolo[1,2-a]azocin-6-yl)carbamoyl)benzo[b]thiophen-5-yl)methyl)(phenoxy)phosphoryl)-L-alaninate], for which the IC50 under setting [1] was in the range of 0.1 to 1 µM.

As to `Cc1ccncc1C1CN(C(=O)[C@@H]2CC[C@@H]3C[C@H]4C[C@H]4C[C@H](NC(=O)c4cc5cc(C(F)P(=O)(N[C@@H](C)C(=O)OCC(C)C)Oc6ccccc6)ccc5s4)C(=O)N32)C1` (stereo partly drawn) [Compound 374, isobutyl ((fluoro(2-(((3S,6S,7aS,8aR,9aR)-3-(3-(4-methylpyridin-3-yl)azetidine-1-carbonyl)-5-oxodecahydro-1H-cyclopropa[d]pyrrolo[1,2-a]azocin-6-yl)carbamoyl)benzo[b]thiophen-5-yl)methyl)(phenoxy)phosphoryl)-L-alaninate], the IC50 under setting [1] was less than 0.1 µM.

`CCCOC(=O)[C@H](C)NP(=O)(Oc1ccccc1)C(F)c1ccc2sc(C(=O)N[C@H]3C[C@@H]4C[C@@H]4C[C@H]4CC[C@@H](C(=O)N5CC(c6cc(C(F)F)on6)C5)N4C3=O)cc2c1` (stereo partly drawn) [Compound 381, propyl(((2-(((3S,6S,7aS,8aR,9aR)-3-(3-(5-(difluoromethyl)isoxazol-3-yl)azetidine-1-carbonyl)-5-oxodecahydro-1H-cyclopropa[d]pyrrolo[1,2-a]azocin-6-yl)carbamoyl)benzo[b]thiophen-5-yl)fluoromethyl)(phenoxy)phosphoryl)-L-alaninate] yielded an IC50 of less than 0.1 µM.

Compound `CCCOC(=O)[C@H](C)NP(=O)(Oc1ccccc1)C(F)c1ccc2sc(C(=O)N[C@H]3C[C@@H]4C[C@@H]4C[C@H]4CC[C@@H](C(=O)N[C@H]5CN(C(N)=O)C[C@@H]5F)N4C3=O)cc2c1` (stereo partly drawn) [Compound 382, propyl(((2-(((3S,6S,7aS,8aR,9aR)-3-(((3S,4S)-1-carbamoyl-4-fluoropyrrolidin-3-yl)carbamoyl)-5-oxodecahydro-1H-cyclopropa[d]pyrrolo[1,2-a]azocin-6-yl)carbamoyl)benzo[b]thiophen-5-yl)fluoromethyl)(phenoxy)phosphoryl)-L-alaninate] showed an IC50 of 0.1 to 1 µM.

For the compound `CCCOC(=O)[C@H](C)NP(=O)(Cc1ccc2sc(C(=O)N[C@H]3C[C@H]4C[C@H]4C[C@H]4CC[C@@H](C(=O)N5CC(c6cnccc6CC)C5)N4C3=O)cc2c1)Oc1ccccc1` (stereo partly drawn) [Compound 392, propyl(((2-(((3S,6S,7aR,8aS,9aR)-3-(3-(4-ethylpyridin-3-yl)azetidine-1-carbonyl)-5-oxodecahydro-1H-cyclopropa[d]pyrrolo[1,2-a]azocin-6-yl)carbamoyl)benzo[b]thiophen-5-yl)methyl)(phenoxy)phosphoryl)-L-alaninate], the IC50 was less than 0.1 µM.

Compound `CCCOC(=O)[C@H](C)N[P@](=O)(Oc1ccccc1)[C@H](F)c1ccc2sc(C(=O)N[C@H]3C[C@H]4C[C@H]4C[C@H]4CC[C@@H](C(=O)N5CC(c6cnccc6N6CCOCC6)C5)N4C3=O)cc2c1` [Compound 395, propyl((R)-((S)-fluoro(2-(((3S,6S,7aR,8aS,9aR)-3-(3-(4-morpholinopyridin-3-yl)azetidine-1-carbonyl)-5-oxodecahydro-1H-cyclopropa[d]pyrrolo[1,2-a]azocin-6-yl)carbamoyl)benzo[b]thiophen-5-yl)methyl)(phenoxy)phosphoryl)-L-alaninate] showed an IC50 of less than 0.1 µM.

Compound `CCCOC(=O)[C@H](C)N[P@@](=O)(Oc1ccccc1)[C@H](F)c1ccc2sc(C(=O)N[C@H]3C[C@H]4C[C@H]4C[C@H]4CC[C@@H](C(=O)N5CC(c6cnccc6N6CCOCC6)C5)N4C3=O)cc2c1` [Compound 396, propyl((S)-((S)-fluoro(2-(((3S,6S,7aR,8aS,9aR)-3-(3-(4-morpholinopyridin-3-yl)azetidine-1-carbonyl)-5-oxodecahydro-1H-cyclopropa[d]pyrrolo[1,2-a]azocin-6-yl)carbamoyl)benzo[b]thiophen-5-yl)methyl)(phenoxy)phosphoryl)-L-alaninate] had an IC50 of less than 0.1 µM.

For the compound `CCCOC(=O)[C@H](C)NP(=O)(Cc1ccc2sc(C(=O)N[C@H]3C[C@H]4C[C@H]4C[C@H]4CC[C@@H](C(=O)N5CC(c6cnccc6N(C)C)C5)N4C3=O)cc2c1)Oc1ccccc1` (stereo partly drawn) [Compound 397, propyl(((2-(((3S,6S,7aR,8aS,9aR)-3-(3-(4-(dimethylamino)pyridin-3-yl)azetidine-1-carbonyl)-5-oxodecahydro-1H-cyclopropa[d]pyrrolo[1,2-a]azocin-6-yl)carbamoyl)benzo[b]thiophen-5-yl)methyl)(phenoxy)phosphoryl)-L-alaninate], the IC50 was less than 0.1 µM.
